Test results from patent US8992444B2, “Devices, systems, and methods for determining isometric and isotonic activity of luminal organs” (DTherapeutics, LLC, priority 2005, dated 2015).

Key:
[1] = tested on: carotid and femoral arteries; test: isovolumic myograph, vasoactivity of arterial segments; parameters: species or system Wistar rats; conditions: concentration-dependent contraction, FIG. 2
Description: Six Wistar rats weighing 300-350 g were used in the study. The animals were anesthetized with sodium pentobarbital (60 mg/kg, ip). A heating pad was used to maintain the body temperature of the animal during anesthesia. The left carotid and common femoral arteries of the rat were exposed and cannulated for blood pressure measurements. This was done to measure the in vivo difference in blood pressure between carotid and femoral arteries. Several 1 cm segments of right carotid and femoral arteries were excised and immediately stored in 4° C. physiological saline solution (PSS).
The samples were then prepared to be tested in the exemplary isovolumic myograph according to the present disclosure as shown in FIG. 1. To prepare the samples, PSS was first contained in an organ bath with a controlled heating system and warmed to 37° C. […]
Vessel 3 and pressure transducer 5 are isolated from the pressure system when vessel 3 is pressurized and the two stopcocks 6 and 7 are closed to vessel 3. […] The changes of the pressure are recorded. […]
The dosage-dependent vasoconstriction in response to phenylephrine was recorded. The dosage- and endothelium-dependent vasodilatation in response to acetylcholine was also recorded in phenylephrine pre-constriction. The dosage-dependent and endothelium-independent vasodilatation in response to sodium nitroprusside (SNP) was recorded in phenylephrine pre-constriction. […]

[2] = tested on: aorta, femoral artery, and mesenteric artery; test: isovolumic myography, dose-dependent vasoconstriction and vasodilatation; parameters: species or system Wistar male rats; conditions: 10^−5 mole/l; three types of arteries at physiological pressure
Description: Animals and tissue preparation. […] Six aorta, six femoral arteries, and six mesenteric arteries were harvested from eighteen rats. The animals were acclimated to the testing facility for approximately one week prior to the start of the study. On the day of termination, each animal was first anesthetized with sodium pentobarbital (80 mg/kg, i.p.) and euthanized by overanesthesia with sodium pentobarbital ([…], i.p.). Either the aorta, common femoral artery, or mesenteric artery were excised quickly and placed in ice-cold physiological saline solution (PSS in mmole/L: 119 NaCl, 4.7 KCl, 25 NaHCO3, 1.17 KH2PO4, 1.17 MgSO4, 1.6 CaCl, 5.5 Dextrose, solution gassed by 95% O2/5% CO2). The artery was carefully cleaned from adjacent tissue with the aid of a stereo-dissection microscope. The branches on the artery were ligated and the artery was allowed to warm up to room temperature (22° C.) slowly in approximately 10-15 min. The artery was transferred to the chamber of isovolumic system and cannulated with connectors and secured with 8-0 suture twice to avoid any leakage. The artery was warmed up to 37° C. slowly (20-25 min) and equilibrated for 40 min at a transmural pressure of 15 mmHg before agonist and antagonist stimulation.
Isovolumic myography. […]

CNC[C@H](O)c1cccc(O)c1 [phenylephrine]
concentration at which the pressure in the vessel reached a maximum [1]: 3 µmol/L | increase in intraluminal pressure [2]: 30 to 40 mmHg
